According to US9067974B2, “Polymyxin derivatives and uses thereof” (priority 2006, dated 2015):

How the values were obtained:
E. coli IH3080 (K1:O18) = experiment: Well diffusion growth inhibition on LB agar plates (direct antibacterial activity); type: cell-based, Escherichia coli
Procedure: Peptides synthesized in Example 1, all carrying at least two (2) but not more than three (3) positive charges, were studied for their ability to inhibit the growth of E. coli. This was tested employing LB agar (LB Agar Lennox, Difco, BD, Sparks, Md., U.S.A) plates. The indicator organism E. coli IH3080 (K1:O18) was an encapsulated strain originally isolated from a neonate suffering from meningitis (Vaara et al. 1984) and obtained from National Public Health Institute, Helsinki, Finland.
(§1) From an overnight-grown culture of IH3080 on LB agar, a suspension of approx. 10^8 cells/ml was prepared in 0.9% NaCl. Aliquots of this suspension were then pipetted on the agar plates and the plates were gently shaken to spread the suspension evenly on the entire surface of the plate. Thereafter, the unabsorbed part of the suspension was removed by using a Pasteur pipette. After the surface had dried, small wells (diameter, 2 mm) were drilled on the plates (five wells per plate) by using a sterile sharp-edged narrow metal tube, single-use pipette tip, and vacuum suction. […] Controls included 0.9% NaCl solution without the compound to be tested. The plates were then incubated for 18 h at 37° C. whereafter the diameters of growth inhibition zones around each well were measured; the diameter of the well itself was not reduced. Finally, the diameters were converted to surface areas of growth inhibition (in square mm).

[1] = system: Ps. aeruginosa ATCC 27853; experiment: Sensitization to rifampin: well diffusion growth inhibition on LB plates containing rifampin; type: cell-based, Pseudomonas aeruginosa; settings: 4 μg of compound
A. baumannii ATCC 19606 = experiment: as above; type: cell-based, Acinetobacter baumannii; settings: 4 μg of compound
E. coli IH3080 = experiment: as above; type: cell-based, Escherichia coli; settings: 4 μg of compound
Procedure: as §1

[2] = system: Pseudomonas aeruginosa ATCC 27853; experiment: Well diffusion growth inhibition on LB agar plates (direct antibacterial activity); type: cell-based; settings: Ps. aeruginosa ATCC 27853
Procedure: (§2) From an overnight-grown culture of IH3080 on LB agar, a suspension of approx. 10^8 cells/ml was prepared in 0.9% NaCl. Aliquots of this suspension were then pipetted on the agar plates and the plates were gently shaken to spread the suspension evenly on the entire surface of the plate. Thereafter, the unabsorbed part of the suspension was removed by using a Pasteur pipette. After the surface had dried, small wells (diameter, 2 mm) were drilled on the plates (five wells per plate) by using a sterile sharp-edged narrow metal tube, single-use pipette tip, and vacuum suction. Samples (4 μl and 10 μl) of the peptide solution in 0.9% NaCl (at concentrations of 1 μg/ml and 0.1 μg/ml) were then pipetted to the wells and the sample fluids were allowed to absorb. Controls included 0.9% NaCl solution without the compound to be tested. The plates were then incubated for 18 h at 37° C. whereafter the diameters of growth inhibition zones around each well were measured; the diameter of the well itself was not reduced. Finally, the diameters were converted to surface areas of growth inhibition (in square mm).
(§3) Direct antibacterial activity of twelve NAB compounds against Acinetobacter baumannii ATCC 19606 and Pseudomonas aeruginosa ATCC 27853 was tested by using the susceptibility determination method described in Example 2. Five compounds (NAB7062, NAB734, NAB737, NAB739, and NAB740) had notable activity against A. baumannii. […] The antibacterial activity of NAB739 and NAB740 were as strong as or even stronger than that of polymyxin B.

[3] = system: Acinetobacter baumannii ATCC 19606; experiment: as above; type: cell-based; settings: A. baumannii ATCC 19606
Procedure: as §2, §3

Substance | Antibacterial activity (growth inhibition area around a well) (E. coli IH3080 (K1:O18); 4 μg of compound per well) | Antibacterial activity (growth inhibition area around a well) (E. coli IH3080 (K1:O18); 10 μg of compound per well) | Antibacterial activity in the presence of rifampin (growth inhibition area around a well) ([1]; rifampin 0 μg/ml) | Antibacterial activity in the presence of rifampin (growth inhibition area around a well) ([1]; rifampin 0.1 μg/ml) | Antibacterial activity in the presence of rifampin (growth inhibition area around a well) ([1]; rifampin 0.3 μg/ml) | Antibacterial activity in the presence of rifampin (growth inhibition area around a well) (A. baumannii ATCC 19606; rifampin 0 μg/ml) | Antibacterial activity in the presence of rifampin (growth inhibition area around a well) (A. baumannii ATCC 19606; rifampin 0.1 μg/ml) | Antibacterial activity in the presence of rifampin (growth inhibition area around a well) (A. baumannii ATCC 19606; rifampin 0.3 μg/ml) | Antibacterial activity in the presence of rifampin (growth inhibition area around a well) (E. coli IH3080; rifampin 0 μg/ml) | Antibacterial activity in the presence of rifampin (growth inhibition area around a well) (E. coli IH3080; rifampin 0.1 μg/ml) | Antibacterial activity in the presence of rifampin (growth inhibition area around a well) (E. coli IH3080; rifampin 1.0 μg/ml) | Antibacterial activity (growth inhibition area around a well) ([2]; 4 μg per well) | Antibacterial activity (growth inhibition area around a well) ([2]; 10 μg per well) | Antibacterial activity (growth inhibition area around a well) ([3]; 4 μg per well) | Antibacterial activity (growth inhibition area around a well) ([3]; 10 μg per well)
DA-Thr-DSer-cy[Dab-Dab-DPhe-Leu-Dab-Dab-Thr-] [NAB 740] | 95 square millimeters | 133 square millimeters | 64 square millimeters | 64 square millimeters | 64 square millimeters | 133 square millimeters | 154 square millimeters | 154 square millimeters | 95 square millimeters | 95 square millimeters | 95 square millimeters | 64 square millimeters | 133 square millimeters | 133 square millimeters | 201 square millimeters
DA-cy[Dab-Dab-DPhe-Leu-Dab-Dab-Thr-] [NAB 736] | 0 square millimeters | 0 square millimeters | 38 square millimeters | 38 square millimeters | 38 square millimeters | 0 square millimeters | 95 square millimeters | 154 square millimeters | 0 square millimeters | 113 square millimeters | 133 square millimeters | 38 square millimeters | 79 square millimeters | 0 square millimeters | 0 square millimeters
OA-Thr-Abu-cy[Dab-Dab-DLeu-Leu-Dab-Dab-Thr-] [NAB 718] | 0 square millimeters | 0 square millimeters | 0 square millimeters | 0 square millimeters | 0 square millimeters | 0 square millimeters | 0 square millimeters | 38 square millimeters | 0 square millimeters | 13 square millimeters | 133 square millimeters | 0 square millimeters | 0 square millimeters | 0 square millimeters | 0 square millimeters
OA-Thr-Abu-cy[Dab-Dab-DPhe-Leu-Dab-Dab-Leu-] [NAB 719] | 7 square millimeters | 50 square millimeters | 0 square millimeters | 0 square millimeters | 7 square millimeters | 0 square millimeters | 154 square millimeters | 133 square millimeters | 7 square millimeters | 79 square millimeters | 95 square millimeters | 0 square millimeters | 0 square millimeters | 0 square millimeters | 0 square millimeters
OA-Thr-DAla-cy[Dab-Dab-DPhe-Thr-Dab-Dab-Thr-] [NAB 738] | 0 square millimeters | 64 square millimeters | 0 square millimeters | 13 square millimeters | 13 square millimeters | 0 square millimeters | 95 square millimeters | 154 square millimeters | 0 square millimeters | 133 square millimeters | 177 square millimeters | 0 square millimeters | 0 square millimeters | 0 square millimeters | 0 square millimeters
OA-Thr-DSer-cy[Dab-Dab-DPhe-Leu-Dab-Dab-Thr-] [NAB 739] | 133 square millimeters | 177 square millimeters | 38 square millimeters | 64 square millimeters | 64 square millimeters | 113 square millimeters | 177 square millimeters | 314 square millimeters | 133 square millimeters | 177 square millimeters | 201 square millimeters | 38 square millimeters | 79 square millimeters | 113 square millimeters | 177 square millimeters
